# From US12371434B2, “MLL1 inhibitors and anti-cancer agents” (NOVARTIS AG, priority 2020, dated 2025)
# What was measured:
# [1] = target: wild type MLL1 four-member complex (MLL1-4C) (Homo sapiens, UniProt Q03164); test: MLL1 LC-MS assay; assay type: biochemical; details: 30 nM MLL1-4C, 2.5 μM SAM, 10 μM H3K4me0; SAH production by LC-MS/MS; read-out: MLL1 LCMS
# Method: The compounds of the present disclosure were serially and separately diluted 3-fold in DMSO to obtain a total of eight or twelve concentrations. Then the test compounds at each concentration (120 nL of each) were transferred by Mosquito into white Proxiplate plus 384-well microplate (PerkinElmer). Solutions (6 μL) of 60 nM wild type MLL1 four-member complex (MLL1-4C) and 5 μM SAM in the reaction buffer (20 mM Tris-HCl, pH8.0, 0.01% Tween 20, 1 mM DTT, 10 mM MgCl2, 0.01% BSA) were added to the wells that were then incubated with the test compound for 20 min. A 6 μL solution of 20 μM of the peptide substrate H3K4me0 (histone H3[1-21]-Biotin) in the reaction buffer was added to initiate each reaction. The final components in the reaction solution include 30 nM MLL1-4C, 2.5 μM SAM, and 10 μM H3K4me0 with varying concentration of the compounds. A positive control consisted of 30 nM MLL1-4C, 2.5 μM SAM, and 10 μM substrate in the absence of the test compound, and a negative control consisted of 2.5 μM SAM, and 10 μM substrate only. Each reaction was incubated at rt for 120 min, then stopped by addition of 3 μL per of quench solution (2.5% TFA with 320 nM d4-SAH). The reaction mixture was centrifuged (Eppendorf centrifuge 5810, Rotor A-4-62) for 2 min at 2000 rmp. The SAH production from the enzymatic assays were monitored by LC-MS/MS on an API 4000 triple quadrupole mass spec with TurboIon Spray (Applied Biosystem) coupled with Prominenece UFLC(Shimazu). The level of SAH production were then normalized based on the values coming from the positive and negative controls to give percent enzyme activities. The data were then fit to a dose response equation using the program Helios (Novartis) to get the IC50 values of the test compounds.
# [2] = target: wild type MLL1 five-member complex (MLL1-5C) (Homo sapiens, UniProt Q03164); test: MLL1 Flashplate assay; assay type: biochemical; details: 2.5 nM MLL1-5C, 0.5 μM 3H-SAM, 1 μM H3K4me0; read-out: MLL1 flash plate
# Method: MLL1 Flashplate Assay To assess the compound potency in MLL1 Flashplate assay, compounds were serially diluted 3-fold in DMSO to obtain a total of twelve concentrations. Then the test compounds at each concentration (250 nL of each) were transferred by Mosquito into Corning #3675 384-well plate. Solutions (15 μL) of 4.2 nM wild type MLL1 five-member complex (MLL1-5C) in the assay buffer (20 mM Tris-HCl, pH8.0, 0.01% Tween 20, 1 mM DTT, 0.01% BSA) were added to the wells. A 10 μL solution of 2.5 μM of the peptide substrate H3K4me0 (histone H3[1-21]-Biotin) and 1.25 μM ^3H-SAM in the reaction buffer was then added to initiate each reaction. The final components in the reaction solution include 2.5 nM MLL1-5C, 0.5 μM ^3H-SAM, and 1 μM H3K4me0 with varying concentration of the compounds. A positive control consisted of 2.5 nM MLL1-5C, 0.5 μM ^3H-SAM, and 1 μM substrate in the absence of the test compound, and a negative control consisted of 0.5 μM ^3H-SAM, and 1 μM substrate only. Each reaction was incubated at rt for 90 min, then stopped by addition of 5 μL per of quench solution (0.5 mM SAM in assay buffer). 25 μL of each reaction solution was transferred to FlashPlate streptavidin 384-well microplate (PerkinElmer). After at least 1 h incubation at rt, the wells were washed three times with 0.1% Tween-20 in dH2O using the BioTek plate washer. The plates were then read in MicroBeta (PerkinElmer). The radioactive readouts were then normalized based on the values coming from the positive and negative controls to give percent enzyme activities. The data were then fit to a dose response equation using the program Helios to get the IC50 values of the test compounds.
# H3K4me3 in MV4-11 cells = test: MV4-11 H3K4Me3 cellular ELISA assay; assay type: cell-based; details: Homo sapiens, 48 hours, H3K4me3 signal normalized to total H3
# Method: MV4-11H3K4Me3 Cellular ELISA Assay
# MV4-11 (ATCC® CRL-9591™) was cultured with RPMI1640 medium (Thermo Fisher Scientific, cat #11875) supplemented with 10% FBS (Thermo Fisher Scientific, cat #10099141) and 50 U/ml Penicillin-Streptomycin (Thermo Fisher Scientific, cat #10378016) in humidified incubator at 37° C., 5% CO2.
# 200 nL compounds dissolved in DMSO were serially diluted at 1:3 ratio for 12 points starting from 10 mM and dispensed into each wells of cell culture plates (PDL-coated ViewPlate-384 Black, FTC, PerkinElmer, #6007710). 3,750 MV4-11 cells in 40 μL culture medium were seeded into each well and treated with desired concentration for 48 hours. After treatment, wash cells with cold phosphate based buffer (PBS, pH 7.4) and aspirate the remaining PBS buffer. Crude histone lysate was extracted by 40 μL 0.5M HCl for 1 hour in 4° C. following neutralization by adding 32 μL neutralization buffer (0.5M Sodium phosphate dibasic, pH˜12.5, 1.25 mM Dithiothreitol, Promega #V3151, Protease Inhibitor Cocktail, Sigma #8340) for each well. 5 μL and 20 μL of histone lysate was loaded to ELISA plate (384 Well Plates, PE HB, White, 6005620) for detection of total H3 and H3K4me3, respectively. Shake the plates gently in 4° C. for overnight. After histone binding, plates were washed with 80 μL PBS/T (PBS with 0.05% Tween-20) and blocked with 50 μL 3% BSA diluted in PBS/T per well for 1 hour. Incubate wells with primary antibody for 1 hour at room temperature using anti-H3K4me3 (CST #9727) and anti-total H3 (CST #9715) diluted 1:2000 in 3% BSA. Plates were then washed with PBS/T for 3 times and incubated with horseradish peroxidase (HRP) conjugated secondary antibody (CST #7074, 1:5000) for 1 hour at room temperature. The abundance of H3K4me3 and total H3 were measured by ECL substrates chemiluminesce (Pierce, #34080) on a plate reader (PerkinElmer EnVison 2104 Mutilable Reader). Percentage inhibition was calculated against DMSO control after normalization of H3K4me3 signal to H3 signal for individual samples. The data were then fit to a dose response curve using GraphPad Prism for IC50 calculation.
# MV4-11 cells = test: MV4-11 6-day cell growth CTG (CellTiter-Glo) assay; assay type: cell-based; details: Homo sapiens, 144 h, 6 days
# Method: MV4-11 6-Day Cell Growth CTG (CellTiter-Glo) Assay
# Acute myeloid leukemia cell MV4-11 (ATCC® CRL-9591™) was cultured with RPMI 1640 medium (Thermo Fisher Scientific, cat #11875) supplemented with 10% FBS (Thermo Fisher Scientific, cat #10099141) in humidified incubator at 37° C., 5% CO2. To assess the effect of MLL1 inhibition on cell growth, the compound of the present invention was dissolved in DMSO and serially diluted at 1:3 for 12 points starting from 10 mM then 200 nL for the replicate of each dose per well was dispensed to Viewplate-384 Black (Perkin Elmer). Exponentially growing MV4-11 cells were seeded at the density of 300 cells per well in 40 μL to the plate, so the final compound working concentration starts from 50 μM. After 6 days, 40 μL CellTiter-Glo (Promega, cat #G7573) was added into the cell culture well and luminescence was read with Envision (Perkin Elmer) to determine the viable cells. The percentage inhibition was calculated against the samples treated with DMSO only and the data were used for dose response curve fitting in GraphPad Prism to get the IC50 of representative compound of present invention, which reflects the inhibition of MLL1 activity.
IC50 [1] [µM],IC50 [2] [µM],IC50 (MV4-11 cells) [µM],Structure (SMILES),IC50 (H3K4me3 in MV4-11 cells) [µM]
> 0.1,> 0.1,,"COC[C@H](N)CCCOc1ccc(Cl)c(Cl)c1Cc1cnc2c(N)ncnn12 [Example 5, (R)-7-(6-((4-amino-5-methoxypentyl)oxy)-2,3-dichlorobenzyl)imidazo[2,1-f][1,2,4]triazin-4-amine]",> 3
> 0.1,> 0.1,,"COC[C@H](N)CCCOc1ccc(Cl)c(Cl)c1Cc1cnn2c(N)ncnc12 [Example 8, (R)-8-(6-((4-amino-5-methoxypentyl)oxy)-2,3-dichlorobenzyl)pyrazolo[1,5-a][1,3,5]triazin-4-amine]",> 3
> 0.1,> 0.1,,"CCOC[C@H](N)CCCOc1ccc(Cl)c(Cl)c1Cc1cnn2c(N)ncnc12 [Example 16, (R)-8-(6-((4-amino-5-ethoxypentyl)oxy)-2,3-dichlorobenzyl)pyrazolo[1,5-a][1,3,5]triazin-4-amine]",> 3
0.05 to 0.1,,< 2,"COC[C@H](N)COc1ccc2ccccc2c1Cn1cnc2c(N)ncnc21 [Example 19, (S)-9-((2-(2-amino-3-methoxypropoxy)naphthalen-1-yl)methyl)-9H-purin-6-amine]",1.9 to 3
0.05 to 0.1,> 0.1,,"COC[C@H](N)CCCOc1cc2ccccc2cc1Cn1cnc2c(N)ncnc21 [Example 21, (R)-9-((3-((4-amino-5-methoxypentyl)oxy)naphthalen-2-yl)methyl)-9H-purin-6-amine]",> 3
> 0.1,> 0.1,,"CN[C@H](CCCOc1cc(Cl)cc(Br)c1Cn1cnc2c(N)ncnc21)COC [Example 22, (R)-9-(2-bromo-4-chloro-6-((5-methoxy-4-(methylamino)pentyl)oxy)benzyl)-9H-purin-6-amine]",
0.05 to 0.1,,> 3,"COc1nc(N)c2ncn(Cc3c(Cl)cc(Cl)cc3OCCC[C@@H](N)C(=O)O)c2n1 [Example 27, (R)-2-amino-5-(2-((6-amino-2-methoxy-9H-purin-9-yl)methyl)-3,5-dichlorophenoxy)pentanoic acid]",
0.05 to 0.1,,< 2,"CCOC(=O)[C@H](N)CCC(C)Oc1ccc(Cl)c(Cl)c1Cn1cnc2c(N)ncnc21 (stereo partly drawn) [Example 30, Ethyl (2R)-2-amino-5-(2-((6-amino-9H-purin-9-yl)methyl)-3,4-dichlorophenoxy)hexanoate]",1.9 to 3
< 0.05,,< 2,"COC(=O)C(N)CCCOc1cc(Cl)cc(Cl)c1Cn1cnc2c(N)ncc(Cl)c21 (centres unmarked) [Example 31, Methyl 2-amino-5-(2-((4-amino-7-chloro-1H-imidazo[4,5-c]pyridin-1-yl)methyl)-3,5-dichlorophenoxy)pentanoate]",
0.05 to 0.1,,< 2,"CCOC(=O)[C@H](N)CCCOc1cc(Cl)cc(Cl)c1Cn1cnc2c(N)ncnc21 [Example 32, ethyl (R)-2-amino-5-(2-((6-amino-9H-purin-9-yl)methyl)-3,5-dichlorophenoxy)pentanoate]",
< 0.05,< 0.06,,"Nc1ncnn2c(Cc3c(OCCC[C@@H](N)C(=O)NC4CC4)ccc(Cl)c3Cl)cnc12 [Example 36, (R)-2-amino-5-(2-((4-aminoimidazo[2,1-f][1,2,4]triazin-7-yl)methyl)-3,4-dichlorophenoxy)-N-cyclopropylpentanamide]",> 3
0.05 to 0.1,> 0.1,,"Nc1ncnc2c(Cc3c(OCCC[C@@H](N)C(=O)NC4CC4)ccc(Cl)c3Cl)cnn12 [Example 37, (R)-2-amino-5-(2-((4-aminopyrazolo[1,5-a][1,3,5]triazin-8-yl)methyl)-3,4-dichlorophenoxy)-N-cyclopropylpentanamide]",> 3
0.05 to 0.1,,< 2,"NC(=O)[C@H](N)CCCOc1ccc(Cl)c(Cl)c1Cn1cnc2c(N)ncnc21 [Example 39, (R)-2-amino-5-(2-((6-amino-9H-purin-9-yl)methyl)-3,4-dichlorophenoxy)pentanamide]",
> 0.1,> 0.1,,"Nc1ncnc2c(Cc3c(OCCC[C@@H](N)CO)ccc(Cl)c3Cl)cnn12 [Example 44, (R)-2-amino-5-(2-((4-aminopyrazolo[1,5-a][1,3,5]triazin-8-yl)methyl)-3,4-dichlorophenoxy)pentan-1-ol]",> 3
0.05 to 0.1,,> 3,"Nc1ncnc2c1ncn2Cc1c(OCCC[C@@H](N)Cn2cccn2)ccc(Cl)c1Cl [Example 49, (R)-9-(6-((4-amino-5-(1H-pyrazol-1-yl)pentyl)oxy)-2,3-dichlorobenzyl)-9H-purin-6-amine]",

Structure (SMILES),IC50 [1] [µM],IC50 [2] [µM],IC50 (MV4-11 cells) [µM],IC50 (H3K4me3 in MV4-11 cells) [µM]
"COC[C@@H](N)CCOc1ccc(Cl)c(Cl)c1Cc1cnn2c(N)ncnc12 [Example 17, (S)-8-(6-(3-amino-4-methoxybutoxy)-2,3-dichlorobenzyl)pyrazolo[1,5-a][1,3,5]triazin-4-amine]",> 0.1,> 0.1,,
